The source of these data is the supplement of paper PMC12137928.

Test [1] concerns HCT116. Put plainly: efficacy (maximum % inhibition of viability vs DMSO); higher = more cytotoxic. The conditions noted are these: 72 h. Put shortly:
(§1)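 IC50 and maximal efficacy were derived from four-parameter Hill curve fits. The underlying CellTiter-Glo luminescence was scaled so that vehicle equals 0% and positive control equals -100%, and was then pattern-corrected. HCT116 cells had been seeded in 1536-well plates at 250 per well.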

The subject of test [2] is HCT116. Particulars: 72 h. An outline of the steps: as §1

Where a name gives a salt, the structure may show the parent alone.

With `CC[C@@]1([C@@H]2O[C@@H]([C@H]3O[C@@](O)(CO)[C@H](C)C[C@@H]3C)C[C@@H]2C)CC[C@H]([C@]2(C)CC[C@]3(C[C@H](O)[C@@H](C)[C@@H]([C@@H](C)[C@@H](OC)[C@H](C)C(=O)O)O3)O2)O1` [Monensin sodium salt], the efficacy in the test on HCT116 [1] (ICRF193 0 nM) turned out to be 81.1%; in the test on HCT116 [1] (ICRF193 200 nM), 83.4%. Besides, the IC50 cell viability in the test with HCT116 [2] (ICRF193 0 nM) and with HCT116 [2] (ICRF193 200 nM) was 3.18 µM each time.
Regarding `C[C@](C#N)(COc1cc(C#N)ccc1C(F)(F)F)NC(=O)c1ccc(SC(F)(F)F)cc1` [Monepantel], the efficacy is 98.1% with HCT116 [1] (ICRF193 0 nM) and 90.3% in the test on HCT116 [1] (ICRF193 200 nM). Also, the IC50 cell viability came to 23.1 µM in the test on HCT116 [2] (ICRF193 0 nM) and 20.6 µM in the test with HCT116 [2] (ICRF193 200 nM).
For `O=C1NC2CCCCN2C12CCN(CCCN1c3ccccc3CCc3ccc(Cl)cc31)CC2` (stereo not given) [Mosapramine] the same measures were 125%, 129%, 20.6 µM and 23.1 µM.
For `CO/N=C1\C[C@]2(C[C@@H]3C[C@@H](C/C=C(\C)C[C@@H](C)/C=C/C=C4\CO[C@@H]5[C@H](O)C(C)=C[C@@H](C(=O)O3)[C@]45O)O2)O[C@H](/C(C)=C/C(C)C)[C@H]1C` [Moxidectin] the same measures were 128%, 111%, 20.6 µM and 16.4 µM.
For `COc1c(C)c2c(c(O)c1C/C=C(\C)CCC(=O)OCCN1CCOCC1)C(=O)OC2` [Mycophenolate mofetil] the same measures were 74%, 74.4%, 1.83 µM and 1.64 µM.
Regarding `COc1c(C)c2c(c(O)c1C/C=C(\C)CCC(=O)O)C(=O)OC2` [Mycophenolic acid], the figures for the efficacy in the test on HCT116 [1] (ICRF193 0 nM) and in the test on HCT116 [1] (ICRF193 200 nM) were 70.7% and 92.4%, respectively. The IC50 cell viability with HCT116 [2] (ICRF193 0 nM) was 1.83 µM; in the test with HCT116 [2] (ICRF193 200 nM), 2.59 µM.
As to `Cc1ccc2nc(N)[nH]c(=O)c2c1Sc1ccncc1` [NOLATREXED HCL], the efficacy with HCT116 [1] (ICRF193 200 nM) came out at 45.1%. Moreover, the IC50 cell viability with HCT116 [2] (ICRF193 0 nM) was more than 45.8 µM; with HCT116 [2] (ICRF193 200 nM), 20.6 µM.
In the case of `CN(C/C=C/c1ccccc1)Cc1cccc2ccccc12` [Naftifine hydrochloride], the efficacy in the test on HCT116 [1] (ICRF193 0 nM) came to 49.9%; in the test on HCT116 [1] (ICRF193 200 nM), 54%. The IC50 cell viability was 32.6 µM with HCT116 [2] (ICRF193 0 nM) and 29.1 µM in the test on HCT116 [2] (ICRF193 200 nM).
On to `COc1ccccc1N1CCN(CC(O)COc2cccc3ccccc23)CC1` (stereo not given) [Naftopidil], for which, in the test on HCT116 [1] (ICRF193 200 nM), the efficacy turned out to be 62.6%. Moreover, the IC50 cell viability was more than 45.8 µM in the test with HCT116 [2] (ICRF193 0 nM) and 23.1 µM in the test on HCT116 [2] (ICRF193 200 nM).
Consider `C[C@]12CC[C@H]3[C@@H](CCC4=CC(=O)CC[C@@H]43)[C@@H]1CC[C@@H]2OC(=O)CCc1ccco1` [Nandrolone furylpropionate], for which the efficacy with HCT116 [1] (ICRF193 0 nM) is 93.3%; in the test with HCT116 [1] (ICRF193 200 nM) it was 88%. In addition, the IC50 cell viability in the test on HCT116 [2] (ICRF193 0 nM) and with HCT116 [2] (ICRF193 200 nM) was 29.1 µM in each case.
As for `CC[C@@H](C(=O)O)[C@@H]1O[C@@H]([C@@H](C)[C@H](O)[C@H](C)C(=O)[C@H](CC)[C@H]2O[C@]3(C=C[C@@H](O)[C@]4(CC[C@@](C)([C@H]5CC[C@](O)(CC)[C@H](C)O5)O4)O3)[C@H](C)C[C@@H]2C)[C@@H](C)C[C@@H]1C` [Narasin], the figures for the efficacy in the test with HCT116 [1] (ICRF193 0 nM) and with HCT116 [1] (ICRF193 200 nM) were 80.5% and 94.5%, respectively. Also, the values for the IC50 cell viability with HCT116 [2] (ICRF193 0 nM) and in the test with HCT116 [2] (ICRF193 200 nM) were 3.66 µM and 2.91 µM, respectively.
For `CCc1nn(CCCN2CCN(c3cccc(Cl)c3)CC2)c(=O)n1CCOc1ccccc1` [Nefazodone hydrochloride] the same measures were 42.5%, 63.8%, 14.6 µM and 18.3 µM.
For `Cc1c(O)cccc1C(=O)N[C@@H](CSc1ccccc1)[C@H](O)CN1C[C@H]2CCCC[C@H]2C[C@H]1C(=O)NC(C)(C)C` [Nelfinavir mesylate], the efficacy was 104% in the test with HCT116 [1] (ICRF193 0 nM) and 106% in the test on HCT116 [1] (ICRF193 200 nM). Further, the IC50 cell viability turned out to be 29.1 µM with HCT116 [2] (ICRF193 0 nM) and 20.6 µM with HCT116 [2] (ICRF193 200 nM).
For `COc1cccc2c1C(=O)c1c(O)c3c(c(O)c1C2=O)C[C@@](O)(C(=O)CO)C[C@@H]3O[C@H]1C[C@H](N2CCO[C@H](OC)C2)[C@H](O)[C@H](C)O1` [Nemorubicin] the same measures were 68.6%, 76.1%, 0.0259 µM and 0.0291 µM.
Take `Cc1ccc(C(=O)OCc2ccc([C@@H](CN)C(=O)Nc3ccc4cnccc4c3)cc2)c(C)c1` [Netarsudil]: the efficacy with HCT116 [1] (ICRF193 0 nM) was found to be 104%; in the test with HCT116 [1] (ICRF193 200 nM), 94.1%. The IC50 cell viability with HCT116 [2] (ICRF193 0 nM) amounted to 14.2 µM; with HCT116 [2] (ICRF193 200 nM) it was 8.96 µM.
For `CCCCCOc1ccccc1/C(=C\SC)n1ccnc1` [Neticonazole], the efficacy in the test with HCT116 [1] (ICRF193 0 nM) came to 48.1%; in the test with HCT116 [1] (ICRF193 200 nM), 51.1%. In addition, the IC50 cell viability in the test with HCT116 [2] (ICRF193 0 nM) and with HCT116 [2] (ICRF193 200 nM) was 16.4 µM in each case.
Turning to `COC(=O)C1=C(C)NC(C)=C(C(=O)OCCN(C)Cc2ccccc2)C1c1cccc([N+](=O)[O-])c1` (stereo not given) [Nicardipine], the efficacy with HCT116 [1] (ICRF193 0 nM) came out at 61.1%; in the test on HCT116 [1] (ICRF193 200 nM), 69.1%. Also, the figures for the IC50 cell viability in the test with HCT116 [2] (ICRF193 0 nM) and in the test with HCT116 [2] (ICRF193 200 nM) were 23.1 µM and 20.6 µM, respectively.
For `O=C(Nc1ccc([N+](=O)[O-])cc1Cl)c1cc(Cl)ccc1O` [Niclosamide] the same measures were 88.5%, 82.8%, 0.712 µM and 0.712 µM.
For `COC(=O)C1=C(C)NC(C)=C(C(=O)OC)C1c1ccccc1[N+](=O)[O-]` [Nifedipine] the same measures were 94.7%, 90.5%, 23.1 µM and 23.1 µM.
As to `COC(=O)c1ccc2c(c1)NC(=O)/C2=C(\Nc1ccc(N(C)C(=O)CN2CCN(C)CC2)cc1)c1ccccc1` [Nintedanib], in the test on HCT116 [1] (ICRF193 200 nM), the efficacy turned out to be 53.6%. Also, the IC50 cell viability with HCT116 [2] (ICRF193 0 nM) is more than 45.8 µM; in the test with HCT116 [2] (ICRF193 200 nM), 10.3 µM.
Consider `COC(=O)C1=C(C)NC(C)=C(C(=O)OCC(C)C)C1c1ccccc1[N+](=O)[O-]` (stereo not given) [Nisoldipine], for which the efficacy in the test on HCT116 [1] (ICRF193 0 nM) was determined as 55.8%; in the test with HCT116 [1] (ICRF193 200 nM), 77.8%. The IC50 cell viability with HCT116 [2] (ICRF193 0 nM) and with HCT116 [2] (ICRF193 200 nM) was 18.3 µM throughout.
As for `CC(=O)Oc1ccccc1C(=O)Nc1ncc([N+](=O)[O-])s1` [Nitazoxanide], the efficacy is 104% with HCT116 [1] (ICRF193 0 nM) and 122% with HCT116 [1] (ICRF193 200 nM). In addition, the IC50 cell viability came out at 13 µM in the test on HCT116 [2] (ICRF193 0 nM) and 18.3 µM with HCT116 [2] (ICRF193 200 nM).
For `Cc1ccc([N+](=O)[O-])[c]2c1[O][Hg]2` [Nitromersol] the same measures were 88.9%, 91.5%, 3.26 µM and 5.8 µM.
On to `O=[N+]([O-])c1ccc(Oc2ccc(N=C=S)cc2)cc1` [Nitroscanate], for which the results for the efficacy in the test with HCT116 [1] (ICRF193 0 nM) and with HCT116 [1] (ICRF193 200 nM) were 82.7% and 85.5%, respectively. The IC50 cell viability in the test with HCT116 [2] (ICRF193 0 nM) and in the test with HCT116 [2] (ICRF193 200 nM) was 29.1 µM in each case.
Take `CC(CCc1ccccc1)NC(C)C(O)c1ccc(O)cc1` (stereo not given) [Nylidrin]: the efficacy in the test with HCT116 [1] (ICRF193 200 nM) came out at 40.7%. In addition, the values for the IC50 cell viability with HCT116 [2] (ICRF193 0 nM) and in the test on HCT116 [2] (ICRF193 200 nM) were more than 45.8 µM and 16.4 µM, respectively.
In the case of `Oc1cccc2cccnc12` [OXYQUINOLINE HEMISULFATE], the values for the efficacy in the test with HCT116 [1] (ICRF193 0 nM) and in the test with HCT116 [1] (ICRF193 200 nM) were 86.7% and 88.8%, respectively. In addition, the IC50 cell viability in the test with HCT116 [2] (ICRF193 0 nM) was found to be 23.1 µM; in the test on HCT116 [2] (ICRF193 200 nM), 18.3 µM.
